Three compounds from patent publication US20240041042A1, “1-(PYRIDYL)-5-AZINYLPYRAZOLE DERIVATIVES, AND THEIR USE FOR CONTROL OF UNDESIRED PLANT GROWTH” (Bayer Aktiengesellschaft, priority 2020, published 2024) can be followed below.

Where two headings read alike, the source gives them in different places.

Common to all, as to format: in vivo
For data set [1], the system named is Lolium rigidum (LOLRI). The experiment in a line: Post-emergence herbicidal action against LOLRI. In a few lines:
(§1)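 Values are percent visual activity (0% like control, 100% plants dead) after about 3 weeks in the greenhouse. Treatment: post-emergence spray at one-leaf stage, 600 l/ha spray volume, 0.5% additive, doses 320 g/ha or lower.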

Data set [2] deals with Echinochloa crus-galli (ECHCG). Put plainly: Post-emergence herbicidal action against ECHCG. Put shortly: as §1
Data set [3] concerns Verconica persica (VERPE). The experiment in a line: Post-emergence herbicidal action against VERPE. Put shortly: as §1
Data set [4] has as its system Matricaria inodora (MATIN). The experiment in a line: Pre-emergence herbicidal action against MATIN. The following applies: dosage 320 g/ha. In a few lines: (§2)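 Seeds sown in pots and covered with soil; WP or EC formulations sprayed onto the soil surface at 600 l/ha water with 0.5% additive, at 320 g/ha or lower. Greenhouse growth for about 3 weeks, then visual scoring as % effect against untreated controls (100% = plants dead).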

Data set [5] concerns Zea mays (ZEAMX). The following applies: for Post-emergence action against ZEAMX in %: crop plant compatibility, 80 g/ha, effect vs untreated controls; for Post-emergence action against ZEAMX in % (crop plant compatibility): 20 g/ha, effect in comparison to untreated controls. Put shortly: (§3)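 Test crops were treated 2 to 3 weeks after sowing, once they reached one leaf, by spraying compound in water with 0.5% additive at 600 l/ha. Visual scoring compared them with untreated controls roughly 3 weeks on, and appendices a, b and c denote different doses.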

The test system of data set [6] is Triticum aestivum (TRZAS). The following applies: crop plant compatibility, 80 g/ha, effect vs untreated controls. Put shortly: as §3
Data set [7] has as its system Oryza sativa (ORYSA). Particulars: crop plant compatibility. In a few lines: as §3
Data set [8] concerns Pharbitis purpurea (PHBPU). Put plainly: Post-emergence herbicidal action against PHBPU. Put shortly:
as §1

Data set [9] deals with Setaria viridis (SETVI). The experiment in a line: Pre-emergence herbicidal action against SETVI. Put shortly:
as §2

The subject of data set [10] is Zea mays (ZEAMX). Particulars: pre-emergence, 80 g/ha, crop plant compatibility, in comparison to untreated controls. Put shortly:
(§4)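 Crop injury rated visually in percent against untreated plants roughly 3 weeks after treatment (0% no effect, 100% plants dead). Compounds, as WP or EC with 0.5% additive in 600 l/ha water, were applied to the covering soil right after sowing; greenhouse growth. Suffixes a, b, c denote different dosages.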

Data set [11] deals with Triticum aestivum (TRZAS). Particulars: pre-emergence, 80 g/ha, crop plant compatibility, in comparison to untreated controls. In a few lines: as §4
Data set [12] has as its system Oryza sativa (ORYSA). Particulars: pre-emergence, 80 g/ha, crop plant compatibility, in comparison to untreated controls. Put shortly:
as §4

Data set [13] deals with Amaranthus retroflexus (AMARE). Put plainly: Pre-emergence herbicidal action against AMARE. The following applies: visual scoring after about 3 weeks vs untreated controls. In a few lines: as §2
Data set [14] concerns Pharbitis purpurea (PHBPU). Put plainly: Pre-emergence herbicidal action against PHBPU. The following applies: dosage 320 g/ha. Put shortly:
as §2

Data set [15] relates to Lolium rigidum (LOLRI). The experiment in a line: Pre-emergence herbicidal action against LOLRI. Particulars: dosage 320 g/ha. In a few lines:
as §2

For data set [16], the system named is Setaria viridis (SETVI). Put plainly: Post-emergence herbicidal action against SETVI. Particulars: dosage 320 g/ha. Put shortly:
as §1

Data set [17] has as its system Alopecurus myosuroides (ALOMY). Put plainly: Pre-emergence herbicidal action against ALOMY. Particulars: scored visually after about 3 weeks, 100% = plants have died. In a few lines:
as §2

The subject of data set [18] is Avena fatua (AVEFA). The experiment in a line: Pre-emergence herbicidal action against AVEFA. Particulars: 320 g/ha, visual scoring after about 3 weeks vs untreated controls. Put shortly: as §2
For data set [19], the system named is Alopecurus myosuroides (ALOMY). Put plainly: Post-emergence herbicidal action against ALOMY. The following applies: 80 g/ha, visual rating about 3 weeks after treatment vs untreated controls (100% = plants have died, 0% = like control plants). In a few lines:
as §1

The subject of another data set is Brassica napus (BRSNW). The following applies: 80 g/ha, crop plant compatibility, in comparison to untreated controls. In a few lines: as §4
The test system of data set [20] is Echinochloa crus-galli (ECHCG). Put plainly: Pre-emergence herbicidal action against ECHCG. The following applies: dosage 320 g/ha. Put shortly: as §2
Data set [21] concerns Viola tricolor (VIOTR). Put plainly: Pre-emergence herbicidal action against VIOTR. In a few lines: as §2
Data set [22] concerns Verconica persica (VERPE). The experiment in a line: Pre-emergence herbicidal action against VERPE. Put shortly: as §2
Data set [23] deals with Viola tricolor (VIOTR). The experiment in a line: Post-emergence herbicidal action against VIOTR. Particulars: 80 g/ha. Put shortly: as §1
Data set [24] concerns Avena fatua (AVEFA). Put plainly: Post-emergence herbicidal action against AVEFA. The following applies: 80 g/ha, visual rating about 3 weeks after treatment. In a few lines: as §1
In data set [25] the test system is Polygonum convolvulus (POLCO). The experiment in a line: Pre-emergence herbicidal action against POLCO. In a few lines: as §2
Setting [26] is: 80 g/ha, effect in comparison to untreated controls.
Where [27] appears, read: 20 g/ha, effect vs untreated controls.

For the compound `COC(=O)CCOC(=O)COc1nn(-c2cccc(C)n2)c(-c2ccc(F)nc2)c1Br` [Example I-278], the “Post-emergence action against LOLRI in %” value in the data set with Lolium rigidum (LOLRI) [1] (dosage 320 g/ha) worked out at 80%. Further, the “Post-emergence action against ECHCG in %” value in [2] (dosage 320 g/ha) was 80%. Moreover, the “Post-emergence action against VERPE in %” value in data set [3] (320 g/ha, VERPE) came to 90%; in data set [3] (dosage 80 g/ha) it was 80%. In [4], the “Pre-emergence action against MATIN in %” value worked out at 80%. In addition, the “Post-emergence action against ZEAMX in %” value in the data set on Zea mays (ZEAMX) [5] was found to be 20%. Also, the “Post-emergence action against TRZAS in %” value in [6] is recorded as 0%. Moreover, the “Post-emergence action against ORYSA in %” value in the data set on Oryza sativa (ORYSA) [7] (setting [26]) is 0%; in the data set with Oryza sativa (ORYSA) [7] (320 g/ha, effect in comparison to untreated controls) it was 10%. Moreover, the “Post-emergence action against PHBPU in %” value in data set [8] (dosage 80 g/ha) and in data set [8] (dosage 320 g/ha) was 80% each time. The “Pre-emergence action against SETVI in %” value in the data set on Setaria viridis (SETVI) [9] (dosage 320 g/ha) is 100%. Also, the “Pre-emergence action against ZEAMX in %” value in the data set on Zea mays (ZEAMX) [10] is 0%. Also, the “Pre-emergence action against TRZAS in %” value in data set [11] worked out at 0%. In the data set with Oryza sativa (ORYSA) [12], the “Pre-emergence action against ORYSA in %” value was 0%. Further, the “Pre-emergence action against AMARE in %” value in [13] (320 g/ha) was found to be 80%. Also, the “Pre-emergence action against PHBPU in %” value in [14] was determined as 80%. Besides, the “Pre-emergence action against LOLRI in %” value with Lolium rigidum (LOLRI) [15] amounted to 80%. Also, the “Post-emergence action against SETVI in %” value with Setaria viridis (SETVI) [16] stood at 90%.

`CCOC(=O)C(C)Oc1nn(-c2ccccn2)c(-c2ccc(F)nc2)c1I` (stereo not drawn) [Example I-101]: the “Post-emergence action against LOLRI in %” value with Lolium rigidum (LOLRI) [1] (dosage 80 g/ha) is 90%. The “Pre-emergence action against ALOMY” value in data set [17] (320 g/ha) turned out to be 100%. For the same compound, the “Post-emergence action against ZEAMX in % (crop plant compatibility)” value in the data set on Zea mays (ZEAMX) [5] is listed as 10%. In the data set with Zea mays (ZEAMX) [5], the “Post-emergence action against ZEAMX in %” value is 10%. Further, the “Post-emergence action against ORYSA in %” value is on record as 0% with Oryza sativa (ORYSA) [7] (setting [27]) and 10% with Oryza sativa (ORYSA) [7] (setting [26]). In the data set with Avena fatua (AVEFA) [18], the “Pre-emergence action against AVEFA in %” value came to 90%. Also, the “Post-emergence action against ALOMY in %” value in [19] is 90%. Also, the “Pre-emergence action against SETVI in %” value with Setaria viridis (SETVI) [9] (dosage 80 g/ha) stood at 90%; in the data set on Setaria viridis (SETVI) [9] (dosage 320 g/ha), 100%. Besides, the “Pre-emergence action against BRSNW in %” value in the data set with Brassica napus (BRSNW) is on record as 10%. Also, the “Pre-emergence action against AMARE in %” value in data set [13] (320 g/ha) was 100%. Besides, in [20], the “Pre-emergence action against ECHCG in %” value worked out at 90%. The “Pre-emergence action against VIOTR in %” value in the data set on Viola tricolor (VIOTR) [21] (320 g/ha, Viola tricolor) was 100%; in the data set with Viola tricolor (VIOTR) [21] (dosage 80 g/ha) it was 80%. Besides, the “Pre-emergence action against VERPE in %” value in data set [22] (dosage 320 g/ha) came to 100%. Also, the “Post-emergence action against VIOTR in %” value with Viola tricolor (VIOTR) [23] was found to be 80%. Also, the “Post-emergence action against AVEFA in %” value in the data set on Avena fatua (AVEFA) [24] is 80%. For the same compound, in the data set with Lolium rigidum (LOLRI) [15], the “Pre-emergence action against LOLRI in %” value amounted to 100%.

Take `COC(=O)[C@@H](C)Oc1nn(-c2ncccc2Cl)c(-c2ccc(F)nc2)c1Br` [Example I-24]: the “Post-emergence action against LOLRI in %” value in the data set with Lolium rigidum (LOLRI) [1] (dosage 80 g/ha) is on record as 90%. Moreover, the “Post-emergence action against ECHCG in %” value in data set [2] (dosage 80 g/ha) is 80%. For the same compound, the “Pre-emergence action against ALOMY” value in [17] (80 g/ha) and in [17] (320 g/ha) was 100% throughout. In data set [4], the “Pre-emergence action against MATIN in %” value stood at 90%. Besides, the “Post-emergence action against ZEAMX in % (crop plant compatibility)” value in the data set with Zea mays (ZEAMX) [5] was found to be 10%. The “Post-emergence action against ZEAMX in %” value with Zea mays (ZEAMX) [5] is 20%. Also, the “Post-emergence action against ORYSA in %” value with Oryza sativa (ORYSA) [7] (setting [27]) is given as 0%; in the data set on Oryza sativa (ORYSA) [7] (setting [26]), 10%. Also, the “Pre-emergence action against AVEFA in %” value in the data set with Avena fatua (AVEFA) [18] is reported as 100%. Besides, in [19], the “Post-emergence action against ALOMY in %” value stood at 90%. Besides, the “Pre-emergence action against SETVI in %” value in the data set on Setaria viridis (SETVI) [9] (dosage 320 g/ha) was found to be 90%. For the same compound, the “Pre-emergence action against ZEAMX in %” value with Zea mays (ZEAMX) [10] is 10%. Besides, the “Pre-emergence action against BRSNW in %” value with Brassica napus (BRSNW) is 20%. Moreover, the entries for the “Pre-emergence action against AMARE in %” value in data set [13] (80 g/ha) and in data set [13] (320 g/ha) were 90% and 100%, respectively. Also, in [20], the “Pre-emergence action against ECHCG in %” value is 100%. Further, the “Pre-emergence action against VIOTR in %” value in the data set on Viola tricolor (VIOTR) [21] (320 g/ha, Viola tricolor) is given as 100%; with Viola tricolor (VIOTR) [21] (dosage 80 g/ha) it was 90%. The “Pre-emergence action against VERPE in %” value in data set [22] (dosage 80 g/ha) stood at 80%; in data set [22] (dosage 320 g/ha), 100%. Besides, the “Post-emergence action against AVEFA in %” value in the data set with Avena fatua (AVEFA) [24] came to 90%. Moreover, the “Pre-emergence action against LOLRI in %” value with Lolium rigidum (LOLRI) [15] came to 100%. Also, the “Pre-emergence action against POLCO in %” value in data set [25] (dosage 80 g/ha) and in data set [25] (dosage 320 g/ha) was 90% in each case.
